Experimental data taken from patent publication US20230158025A1 (UNIVERSITY OF UTAH RESEARCH FOUNDATION, priority 2020, published 2023).
Read-outs that look alike come from different tables or passages of the source.

Key:
[1] = aqueous kinetic solubility
recombinant human GALK1 = recombinant human GALK1 (Homo sapiens, UniProt P51570); experiment: hGALK1 biochemical activity assay (Kinase-Glo Plus, ATP depletion)
In short: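 Recombinant human or mouse GALK1 (5 nM, with 100 μM galactose, in the added enzyme solution) was run with ATP (35 μM in the substrate solution) in HEPES pH 8.0 buffer. Compounds were tested at 11 1/3-step concentrations from 57.4 μM to 0.97 nM. After 1 h at room temperature, remaining ATP was read by Kinase-Glo Plus luminescence.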

recombinant mouse GALK1 = recombinant mouse GALK1 (Mus musculus, UniProt Q9R0N0); experiment: mGALK1 biochemical activity assay (Kinase-Glo Plus, ATP depletion)
In short: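 Recombinant GALK1 (5 nM) with 100 μM galactose; GALK1 turnover read as ATP depletion by Kinase-Glo Plus luminescence. Reaction ran 1 h at room temperature before detection reagent was added.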

[2] = rat microsomal stability (RLM); details: for half-life: rat, rat liver microsomes
hGALK1m = biological target: T1, hGALK1m (Homo sapiens, UniProt P51570, E253A/K252A); experiment: in vitro hGALK1 activity assay of the structure-based optimisation (Example 12, Tables 17-20); assay type: biochemical
T1 construct: made in house; host or cells: E. coli HMS174
Method: In vitro hGALK1 activity assays were performed as previously described. Liu et al., Bioorg. Med. Chem. Lett. 25(3): 721-727 (2015), which is incorporated by reference herein for the specific teachings thereof. The biochemical assay was performed by coupling the activity of recombinant human or mouse GALK1 to the Kinase-Glo Plus luminescent ATP detection kit, using ATP depletion as a measure of GALK1 turnover. Specifically, three μL/well of ATP substrate solution (35 μM ATP) in assay buffer (20 mM HEPES pH 8.0, 5 mM MgCl2, 60 mM NaCl, 1 mM DTT, 0.01% BSA final concentration) was dispensed into 1536-well assay plates (Greiner, white solid-bottom medium-binding plates). Aliquots of compound (23 nL solubilized in DMSO) were transferred to the assay plates using a Kalypsys 1536-well pintool such that 11 concentrations with 1/3 dilutions ranging from 57.4 μM-0.97 nM are tested. One μL/well of GALK-galactose solution (5 nM GALK1, 100 μM galactose) in assay buffer was then added, yielding a final reaction volume of 4 μL/well. Following a 1-hour room temperature incubation, 4 μL of Kinase-Glo Plus detection reagent was added to provide an ATP-dependent luminescent readout (final assay volume: 8 μL/well). Luminescence was detected using a ViewLux plate reader (PerkinElmer) after a 10-minute incubation, using a 1 second exposure time and 2× binning.
The in vitro hGALK1 activity assay was performed as previously described. Liu et al., Bioorg. Med. Chem. Lett. 25(3): 721-727 (2015). For the measurement of cellular Gal-1P reduction, compounds at different concentrations were added to cultured patient fibroblast at 80% confluency. After incubating the compounds for 16 hours, 10 mM galactose was added to the culture. After another 4 hours, cells were washed with cold PBS buffer 3× and harvested for gal-1P measurement, according to the previously published method. Liu et al., Bioorg. Med. Chem. Lett. 25(3): 721-727 (2015).

[3] = Tables 2-15, 35 μM ATP, 100 μM galactose, 1 h, bracketed figure after some values (e.g. −1.2) is undefined and not reported, read-out: hGALK IC50
[4] = Tables 2-15, 35 μM ATP, 100 μM galactose, 1 h, bracketed figure after some values is undefined and not reported, read-out: mGALK IC50
[5] = recombinant mouse GALK1, Kinase-Glo Plus ATP depletion, read-out: mGALK
[6] = 1 h, Table 17, read-out: Efficacy
[7] = Table 17, amide group optimization, no unit in table
[8] = PAMPA, ADME P: PAMPA permeability (class), Tables 17-19, class probably colour-coded, colour lost
[9] = recombinant human GALK1, Kinase-Glo Plus ATP depletion, read-out: hGALK
[10] = Tables 18-19, read-out: Max Response (%)
[11] = Tables 18-20 and text of Example 12
[12] = Tables 18-19 and text of Example 12
[13] = PAMPA, Perm. (1 × 10^−6 cm/sec)

T1 sequence (P51570 whole entry K252A/E253A): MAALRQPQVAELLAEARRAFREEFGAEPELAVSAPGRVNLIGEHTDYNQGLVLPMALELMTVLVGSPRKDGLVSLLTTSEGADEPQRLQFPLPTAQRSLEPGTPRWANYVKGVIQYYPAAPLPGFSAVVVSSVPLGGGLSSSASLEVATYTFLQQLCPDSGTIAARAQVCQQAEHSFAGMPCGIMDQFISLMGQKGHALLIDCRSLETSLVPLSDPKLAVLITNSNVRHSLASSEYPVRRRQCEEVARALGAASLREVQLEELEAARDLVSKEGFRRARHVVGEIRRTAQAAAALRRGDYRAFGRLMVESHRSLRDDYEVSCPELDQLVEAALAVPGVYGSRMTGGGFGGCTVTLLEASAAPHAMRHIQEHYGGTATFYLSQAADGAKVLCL
Sequence of recombinant human GALK1 (P51570 whole entry): as the sequence (P51570 whole entry K252A/E253A) above, with A252K, A253E counted along it
Sequence of recombinant mouse GALK1 (Q9R0N0 whole entry): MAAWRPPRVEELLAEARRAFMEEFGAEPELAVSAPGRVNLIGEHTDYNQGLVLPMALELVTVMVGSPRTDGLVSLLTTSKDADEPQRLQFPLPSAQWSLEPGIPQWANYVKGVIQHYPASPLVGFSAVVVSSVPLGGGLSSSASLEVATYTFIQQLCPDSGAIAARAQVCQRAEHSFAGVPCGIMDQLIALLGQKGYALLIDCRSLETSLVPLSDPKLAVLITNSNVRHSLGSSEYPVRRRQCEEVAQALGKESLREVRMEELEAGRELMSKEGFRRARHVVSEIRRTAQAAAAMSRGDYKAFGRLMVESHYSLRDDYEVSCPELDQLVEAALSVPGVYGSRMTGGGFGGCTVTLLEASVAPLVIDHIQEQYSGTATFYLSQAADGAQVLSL

Structure (SMILES) | Sol. ([1]; aqueous kinetic solubility) [µg/mL] | IC50 (recombinant human GALK1; [3]) [µM] | IC50 (recombinant mouse GALK1; [4]) [µM] | IC50 (recombinant mouse GALK1; [5]) [µM] | Metab. Stabil. (m) ([2]; microsomal stability half-life) | half-life [2] [min] | Emax (hGALK1m; [6]) [%] | IC50 (hGALK1m; [7]) [µM] | Perm. (1 × 10^−6 cm/sec) (PAMPA permeability; PAMPA) | Papp (PAMPA permeability; [8]) [×10⁻⁶ cm/s] | Sol. [1] [µg/mL] | IC50 (recombinant human GALK1; [9]) [µM] | Metab. Stabil. (m) ([2]; microsomal half-life) | change of potency versus parent compound (in words) (hGALK1m) | Emax (hGALK1m; [10]) [%] | IC50 (hGALK1m; [11]) [µM] | IC50 (hGALK1m; [12]) [µM] | Perm. (1 × 10^−6 cm/sec) (PAMPA permeability) | fold improvement of potency (IC50) versus parent compound (hGALK1m; increase in potency relative to the unsubstituted parent) [fold] | Papp (PAMPA permeability; [13]) [×10⁻⁶ cm/s]
COc1ccc(C2N=C(Nc3nc4ccc(F)cc4o3)NC(C)=C2C(=O)Nc2cc(C(=O)O)ccn2)c(Cl)c1 (racemic) [Compound 46, 2-(4-(2-chloro-4-methoxyphenyl)-2-((6-fluorobenzo[d]oxazol-2-yl)amino)-6-methyl-1,4-dihydropyrimidine-5-carboxamido)isonicotinic acid] |  | 0.43 | 3.06 | 3.06 |  | < 10 |  |  |  | < 10 | 8.3 | 0.43 | >30 | little effect | 100 | 0.3 |  |  |  | 
CC1=C(C(=O)Nc2cc(C(=O)O)ccn2)C(c2ccccc2Cl)N=C(Nc2nc3cccc(C(F)(F)F)c3o2)N1 (stereo not shown) [Compound 16, 2-(4-(2-chlorophenyl)-6-methyl-2-((7-(trifluoromethyl)benzo[d]oxazol-2-yl)amino)-1,4-dihydropyrimidine-5-carboxamido)isonicotinic acid] |  |  | 48.5 | 48.6 |  | < 10 |  |  |  | < 10 | 61.135 | 21.7 | >30 | greatly compromised the potencies | 100 |  | > 15 | <1 1 × 10^−6 cm/sec |  | 
CC1=C(C(=O)Nc2cc(C(=O)O)ccn2)C(c2cccc(C(N)=O)c2)N=C(Nc2nc3ccc(F)cc3o2)N1 (stereo not shown) [Compound 76, 2-(4-(3-carbamoylphenyl)-2-((6-fluorobenzo[d]oxazol-2-yl)amino)-6-methyl-1,4-dihydropyrimidine-5-carboxamido)isonicotinic acid] |  | 7.69 | 21.7 | 21.7 |  | < 10 |  |  |  | < 10 | >78 | 7.69 | >30 | significantly impaired the potency | 90 |  | 3.8 | <1 1 × 10^−6 cm/sec |  | 
CC1=C(C(=O)Nc2cc(C(=O)O)ccn2)C(c2ccc(C)cc2Cl)N=C(Nc2nc3ccc(F)cc3o2)N1 (racemic) [Compound 50, 2-(4-(2-chloro-4-methylphenyl)-2-((6-fluorobenzo[d]oxazol-2-yl)amino)-6-methyl-1,4-dihydropyrimidine-5-carboxamido)isonicotinic acid] |  | 0.39 | 3.06 | 3.06 |  | < 10 |  |  |  | < 10 | 2.8 | 0.39 | >30 |  | 100 | 0.136 |  |  | 2 | < 1.5
CC1=C(C(=O)Nc2cc(C(=O)O)ccn2)C(c2ccc(F)cc2Cl)N=C(Nc2nc3ccc(F)cc3o2)N1 (stereo not shown) [Compound 45, 2-(4-(2-chloro-4-fluorophenyl)-2-((6-fluorobenzo[d]oxazol-2-yl)amino)-6-methyl-1,4-dihydropyrimidine-5-carboxamido)isonicotinic acid] |  |  | 4.32 | 4.32 |  | < 10 |  |  |  | < 10 | 40.6 | 0.86 | >30 | little effect on the potency | 100 | 0.258 |  | <1 1 × 10^−6 cm/sec |  | 
CC1=C(C(=O)Nc2cc(C(=O)O)ccn2)C(c2ccc(Cl)cc2Cl)N=C(Nc2nc3ccc(F)cc3o2)N1 (stereo not shown) [Compound 47, 2-(4-(2,4-dichlorophenyl)-2-((6-fluorobenzo[d]oxazol-2-yl)amino)-6-methyl-1,4-dihydropyrimidine-5-carboxamido)isonicotinic acid] |  |  | 3.85 | 3.85 |  | < 10 |  |  |  | < 10 | <1 | 1.09 | >30 | little effect on the potency | 85 | 0.345 |  | <1 1 × 10^−6 cm/sec |  | 
CC1=C(C(=O)Nc2cc(C(=O)O)ccn2)C(c2cccc(C(F)(F)F)c2Cl)N=C(Nc2nc3ccc(F)cc3o2)N1 (stereo not shown) [Compound 51, 2-(4-(2-chloro-3-(trifluoromethyl)phenyl)-2-((6-fluorobenzo[d]oxazol-2-yl)amino)-6-methyl-1,4-dihydropyrimidine-5-carboxamido)isonicotinic acid] |  | 19.3 | 27.3 | 27.3 |  | < 10 |  |  |  | < 10 | 70.1 | 19.3 | >30 | compromised the potency | 97 |  | 2.4 |  |  | 

Second part, the compound after the results:

Sol. ([1]; aqueous kinetic solubility) [µg/mL] | IC50 (recombinant human GALK1; [3]) [µM] | IC50 (recombinant mouse GALK1; [4]) [µM] | IC50 (recombinant mouse GALK1; [5]) [µM] | Metab. Stabil. (m) ([2]; microsomal stability half-life) | half-life [2] [min] | Emax (hGALK1m; [6]) [%] | IC50 (hGALK1m; [7]) [µM] | Perm. (1 × 10^−6 cm/sec) (PAMPA permeability; PAMPA) | Papp (PAMPA permeability; [8]) [×10⁻⁶ cm/s] | Sol. [1] [µg/mL] | IC50 (recombinant human GALK1; [9]) [µM] | Metab. Stabil. (m) ([2]; microsomal half-life) | change of potency versus parent compound (in words) (hGALK1m) | Emax (hGALK1m; [10]) [%] | IC50 (hGALK1m; [11]) [µM] | IC50 (hGALK1m; [12]) [µM] | Perm. (1 × 10^−6 cm/sec) (PAMPA permeability) | fold improvement of potency (IC50) versus parent compound (hGALK1m; increase in potency relative to the unsubstituted parent) [fold] | Papp (PAMPA permeability; [13]) [×10⁻⁶ cm/s] | Structure (SMILES)
<1 | 1.53 | 6.11 | 6.11 | >30 | < 10 | 100 | 1.4 | 3.6 1 × 10^−6 cm/sec | < 10 |  |  |  |  |  |  |  |  |  |  | CC1=C(C(=O)Nc2ccc(C(=O)O)cc2)C(c2ccccc2Cl)N=C(Nc2nc3ccccc3o2)N1 (stereo not shown) [Compound 143, 4-(2-(benzo[d]oxazol-2-ylamino)-4-(2-chlorophenyl)-6-methyl-1,4-dihydropyrimidine-5-carboxamido)benzoic acid]
<1 | 3.85 | 7.69 | 7.69 | >30 | < 10 | 96 | 3.4 | 207.3 1 × 10^−6 cm/sec | < 10 |  | 3.85 |  |  |  |  |  |  |  |  | CC1=C(C(=O)Nc2nncs2)C(c2ccccc2Cl)N=C(Nc2nc3ccccc3o2)N1 (stereo not shown) [Compound 205, 2-(benzo[d]oxazol-2-ylamino)-4-(2-chlorophenyl)-6-methyl-N-(1,3,4-thiadiazol-2-yl)-1,4-dihydropyrimidine-5-carboxamide]
>74 | 1.08 | 6.85 | 6.85 | >30 | < 10 | 88 |  |  | < 10 |  | 1.08 |  |  |  | 0.97 |  |  |  | < 1 | CC1=C(C(=O)Nc2cc(C(=O)O)ccn2)C(c2ccccc2Cl)N=C(Nc2nc3ccccc3o2)N1 (racemic) [Compound 194, 2-(2-(benzo[d]oxazol-2-ylamino)-4-(2-chlorophenyl)-6-methyl-1,4-dihydropyrimidine-5-carboxamido)isonicotinic acid]
 | 5.44 | 13.7 | 13.7 |  | < 10 |  |  |  | < 10 | <1 |  | >30 |  | 85 |  | 5.8 | <1.3 1 × 10^−6 cm/sec |  |  | CC1=C(C(=O)Nc2cc(C(=O)O)ccn2)C(c2ccccc2Cl)N=C(Nc2nc3c(Cl)cccc3o2)N1 (stereo not shown) [Compound 11, 2-(2-((4-chlorobenzo[d]oxazol-2-yl)amino)-4-(2-chlorophenyl)-6-methyl-1,4-dihydropyrimidine-5-carboxamido)isonicotinic acid]
